Numbered stars: 1 amine (or outer) side, 2 acyl side, 3 side chain; on linkers, the order of the positions; unused ones are H or OH. Bridge positions count the residues as written; N and C are the ends. Square brackets hold non-standard residues; d marks the D form. Peptide text beside a SMILES is read from it. * marks the point of attachment. ξ: configuration not given here. X1 = C[C@@]1(C(=O)C[C@@H](Cc2ccccc2)C(=O)[*:2])CCCN1[*:1]; DOTA = O=C(O)CN1CCN(CC(=O)O)CCN(CC(=O)*)CCN(CC(=O)O)CC1; Phe(2-Cl) = N[C@@H](Cc1ccccc1Cl)C(=O)O; 1Nal = N[C@@H](Cc1cccc2ccccc12)C(=O)O; 2Nal = N[C@@H](Cc1ccc2ccccc2c1)C(=O)O; Phe(2-Me) = Cc1ccccc1C[C@H](N)C(=O)O; 3Pal = N[C@@H](Cc1cccnc1)C(=O)O; Chg = N[C@H](C(=O)O)C1CCCCC1; Pen = CC(C)(S)[C@H](N)C(=O)O; Tle = CC(C)(C)[C@H](N)C(=O)O; αMeP = C[C@@]1(C(=O)O)CCCN1; Pip = O=C(O)[C@@H]1CCCCN1; CH2 = C([*:1])[*:2]; ξC = NC(CS)C(=O)O
molecular target: T1, human DLL3 (Homo sapiens, UniProt Q9NYJ7); experiment: Affinity determination by Surface Plasmon Resonance (SPR), Biacore, 1:1 binding model; conditions: biotinylated human DLL3 on streptavidin chip, 25° C.; NB = nonbinding
T1 construct: biotin (biotinylated)
T1 sequence (Q9NYJ7 27-618): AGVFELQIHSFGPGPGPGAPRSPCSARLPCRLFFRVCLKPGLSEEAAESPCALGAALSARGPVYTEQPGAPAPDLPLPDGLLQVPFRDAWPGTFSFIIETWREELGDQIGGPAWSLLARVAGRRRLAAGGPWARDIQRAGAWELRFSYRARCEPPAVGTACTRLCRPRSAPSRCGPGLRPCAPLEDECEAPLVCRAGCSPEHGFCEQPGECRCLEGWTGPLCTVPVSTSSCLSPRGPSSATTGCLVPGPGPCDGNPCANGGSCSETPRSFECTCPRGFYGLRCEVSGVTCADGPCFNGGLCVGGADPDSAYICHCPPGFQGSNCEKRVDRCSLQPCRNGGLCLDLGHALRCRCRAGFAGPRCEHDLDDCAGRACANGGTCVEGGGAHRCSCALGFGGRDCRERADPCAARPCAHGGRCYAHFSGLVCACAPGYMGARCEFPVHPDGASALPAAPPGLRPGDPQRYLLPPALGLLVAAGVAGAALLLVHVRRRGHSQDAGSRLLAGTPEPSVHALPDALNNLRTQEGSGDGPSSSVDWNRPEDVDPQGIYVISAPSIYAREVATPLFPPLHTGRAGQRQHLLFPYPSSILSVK
Summary of the method: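 SPR with biotinylated human DLL3 captured on a streptavidin chip, with a reference surface subtracted. Samples were injected at several concentrations at 100 μL/min in phosphate buffer with 137 mM NaCl, 2.7 mM KCl, 0.05% P20 and 2% DMSO. Kinetic and affinity constants came from a 1:1 binding fit.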

Compound | Kd [nM] | SPR KD (nM)
CC(=O)N[C@H](C(=O)N[C@@H](CO)C(=O)N[C@@H](CC(=O)O)C(=O)N[C@H]1CSSC[C@@H](C(=O)N2CCC[C@@]2(C)C(=O)N[C@@H](Cc2ccccc2Cl)C(=O)N[C@@H](CC(=O)O)C(=O)N[C@H](CCCCNC(=O)CN2CCN(CC(=O)O)CCN(CC(=O)O)CCN(CC(=O)O)CC2)C(N)=O)NC(=O)[C@H](CC(N)=O)NC(=O)[C@H](Cc2c[nH]c3ccccc23)NC(=O)[C@H](CCC(N)=O)NC(=O)[C@H](CC(C)C)NC(=O)[C@H](Cc2cccc3ccccc23)NC1=O)C1CCCCC1 [compound 118, Ac-(Chg)-S-D-C(3)-(1Nal)-L-Q-W-N-C(3)-(aMe-P)-(2Cl-Phe)-D-D-Lys(DOTA)-CONH2] (Ac-[Chg]SDC[1Nal]LQWNC[αMeP][Phe(2-Cl)]D[dK](DOTA)-NH2; disulfide 4-10) | 0.74 | 
CC(=O)N[C@H](C(=O)N[C@@H](CO)C(=O)N[C@@H](CC(=O)O)C(=O)N[C@H]1CSSC[C@@H](C(=O)N2CCC[C@@]2(C)C(=O)N[C@@H](Cc2ccccc2C)C(=O)N[C@@H](CC(=O)O)C(=O)N[C@H](CCCCNC(=O)CN2CCN(CC(=O)O)CCN(CC(=O)O)CCN(CC(=O)O)CC2)C(N)=O)NC(=O)[C@H](CC(N)=O)NC(=O)[C@H](Cc2c[nH]c3ccccc23)NC(=O)[C@H](CCC(N)=O)NC(=O)[C@H](CC(C)C)NC(=O)[C@H](Cc2cccc3ccccc23)NC1=O)C1CCCCC1 [compound 119, Ac-(Chg)-S-D-C(3)-(1Nal)-L-Q-W-N-C(3)-(aMe-P)-(2Me-Phe)-D-D-Lys(DOTA)-CONH2] (Ac-[Chg]SDC[1Nal]LQWNC[αMeP][Phe(2-Me)]D[dK](DOTA)-NH2; disulfide 4-10) | 0.65 | 
CC(=O)N[C@H](C(=O)N[C@@H](CO)C(=O)N[C@@H](CC(=O)O)C(=O)N[C@H]1CSSC(C)(C)[C@@H](C(=O)N2CCC[C@@]2(C)C(=O)N[C@@H](Cc2ccccc2)C(=O)N[C@@H](CC(=O)O)C(=O)N[C@H](CCCCNC(=O)CN2CCN(CC(=O)O)CCN(CC(=O)O)CCN(CC(=O)O)CC2)C(N)=O)NC(=O)[C@H](CC(N)=O)NC(=O)[C@H](Cc2c[nH]c3ccccc23)NC(=O)[C@H](CCC(N)=O)NC(=O)[C@H](CC(C)C)NC(=O)[C@H](Cc2cccc3ccccc23)NC1=O)C1CCCCC1 [compound 120, Ac-(Chg)-S-D-C(3)-(1Nal)-L-Q-W-N-Pen(3)-(aMe-P)-F-D-D-Lys(DOTA)-CONH2] (Ac-[Chg]SDC[1Nal]LQWN[Pen][αMeP]FD[dK](DOTA)-NH2; disulfide 4-10) | > 30 | 
CC(=O)N[C@H](C(=O)N[C@@H](CO)C(=O)N[C@@H](CC(=O)O)C(=O)NC1CSCSC[C@@H](C(=O)N2CCC[C@@]2(C)C(=O)N[C@@H](Cc2ccccc2)C(=O)N[C@@H](CC(=O)O)C(=O)N[C@H](CCCCNC(=O)CN2CCN(CC(=O)O)CCN(CC(=O)O)CCN(CC(=O)O)CC2)C(N)=O)NC(=O)[C@H](CC(N)=O)NC(=O)[C@H](Cc2c[nH]c3ccccc23)NC(=O)[C@H](CCC(N)=O)NC(=O)[C@H](CC(C)C)NC(=O)[C@H](Cc2cccc3ccccc23)NC1=O)C1CCCCC1 (stereo partly drawn) [compound 121, Ac-(Chg)-S-D-[D-Cys(1)]-(1Nal)-L-Q-W-N-C(1)-(aMe-P)-F-D-D-Lys(DOTA)-CONH2] (Ac-[Chg]SD[ξC][1Nal]LQWNC[αMeP]FD[dK](DOTA)-NH2; linker 4-10 via CH2) | > 30 | 
CC(=O)N[C@H](C(=O)N[C@@H](CO)C(=O)N[C@@H](CC(=O)O)C(=O)N[C@H]1CSCSC[C@H](C(=O)N2CCC[C@@]2(C)C(=O)N[C@@H](Cc2ccccc2)C(=O)N[C@@H](CC(=O)O)C(=O)N[C@H](CCCCNC(=O)CN2CCN(CC(=O)O)CCN(CC(=O)O)CCN(CC(=O)O)CC2)C(N)=O)NC(=O)[C@H](CC(N)=O)NC(=O)[C@H](Cc2c[nH]c3ccccc23)NC(=O)[C@H](CCC(N)=O)NC(=O)[C@H](CC(C)C)NC(=O)[C@H](Cc2cccc3ccccc23)NC1=O)C1CCCCC1 [compound 122, Ac-(Chg)-S-D-C(1)-(1Nal)-L-Q-W-N-[D-Cys(1)]-(aMe-P)-F-D-D-Lys(DOTA)-CONH2] (Ac-[Chg]SDC[1Nal]LQWN[dC][αMeP]FD[dK](DOTA)-NH2; linker 4-10 via CH2) | > 30 | 
CC(=O)N[C@H](C)C(=O)N[C@H](CO)C(=O)N[C@@H](CC(=O)O)C(=O)N[C@H]1CSSC[C@@H](C(=O)N2CCC[C@@]2(C)C(=O)N[C@@H](Cc2ccccc2)C(=O)N[C@@H](CC(=O)O)C(=O)N[C@H](CCCCNC(=O)CN2CCN(CC(=O)O)CCN(CC(=O)O)CCN(CC(=O)O)CC2)C(N)=O)NC(=O)[C@H](CC(N)=O)NC(=O)[C@H](Cc2ccc3ccccc3c2)NC(=O)[C@H](Cc2cccnc2)NC(=O)[C@H](C2CCCCC2)NC(=O)[C@H](Cc2cccc3ccccc23)NC1=O [compound 127, Ac-(D-Ala)-(D-Ser)-D-C(3)-(1Nal)-(Chg)-(3Pya)-(2Nal)-N-C(3)-(aMe-P)-F-D-D-Lys(DOTA)-CONH2] (Ac-[dA][dS]DC[1Nal][Chg][3Pal][2Nal]NC[αMeP]FD[dK](DOTA)-NH2; disulfide 4-10) | 0.5 | 

Second part, the molecule after the results:

Kd [nM] | SPR KD (nM) | Compound
0.34 |  | CC(=O)N[C@H](C(=O)N[C@@H](CO)C(=O)N[C@@H](CC(=O)O)C(=O)N[C@H]1CSSC[C@@H](C(=O)N2CCC[C@@]2(C)C(=O)N[C@@H](Cc2ccccc2)C(=O)N[C@@H](CC(=O)O)C(=O)N[C@H](CCCCNC(=O)CN2CCN(CC(=O)O)CCN(CC(=O)O)CCN(CC(=O)O)CC2)C(N)=O)NC(=O)[C@H](CC(N)=O)NC(=O)[C@H](Cc2c[nH]c3ccccc23)NC(=O)[C@H](CCC(N)=O)NC(=O)[C@H](C2CCCCC2)NC(=O)[C@H](Cc2cccc3ccccc23)NC1=O)C1CCCCC1 [compound 123, Ac-(Chg)-S-D-C(3)-(1Nal)-Chg-Q-W-N-C(3)-(aMe-P)-F-D-D-Lys(DOTA)-CONH2] (Ac-[Chg]SDC[1Nal][Chg]QWNC[αMeP]FD[dK](DOTA)-NH2; disulfide 4-10)
0.15 |  | CC(=O)N[C@H](C(=O)N[C@@H](CO)C(=O)N[C@@H](CC(=O)O)C(=O)N[C@H]1CSSC[C@@H](C(=O)N2CCC[C@@]2(C)C(=O)N[C@@H](Cc2ccccc2)C(=O)N[C@@H](CC(=O)O)C(=O)N[C@H](CCCCNC(=O)CN2CCN(CC(=O)O)CCN(CC(=O)O)CCN(CC(=O)O)CC2)C(N)=O)NC(=O)[C@H](CC(N)=O)NC(=O)[C@H](Cc2ccc3ccccc3c2)NC(=O)[C@H](CCC(N)=O)NC(=O)[C@H](CC(C)C)NC(=O)[C@H](Cc2cccc3ccccc23)NC1=O)C1CCCCC1 [compound 124, Ac-(Chg)-S-D-C(3)-(1Nal)-L-Q-(2Nal)-N-C(3)-(aMe-P)-F-D-D-Lys(DOTA)-CONH2] (Ac-[Chg]SDC[1Nal]LQ[2Nal]NC[αMeP]FD[dK](DOTA)-NH2; disulfide 4-10)
0.26 |  | CC(=O)N[C@H](C)C(=O)N[C@H](CO)C(=O)N[C@@H](CC(=O)O)C(=O)N[C@H]1CSSC[C@@H](C(=O)N2CCC[C@@]2(C)C(=O)C[C@@H](Cc2ccccc2)C(=O)N[C@@H](CC(=O)O)C(=O)N[C@H](CCCCNC(=O)CN2CCN(CC(=O)O)CCN(CC(=O)O)CCN(CC(=O)O)CC2)C(N)=O)NC(=O)[C@H](CC(N)=O)NC(=O)[C@H](Cc2ccc3ccccc3c2)NC(=O)[C@H](CCC(N)=O)NC(=O)[C@H](C2CCCCC2)NC(=O)[C@H](Cc2cccc3ccccc23)NC1=O [compound 126, Ac-(D-Ala)-(D-Ser)-D-C(3)-(1Nal)-(Chg)-Q-(2Nal)-N-C(3)-(aMe-P)-F-D-D-Lys(DOTA)-CONH2] (Ac-[dA][dS]DC[1Nal][Chg]Q[2Nal]NC[X1]D[dK](DOTA)-NH2; disulfide 4-10)
 | slow kon | CC(=O)N[C@H](C(=O)N[C@@H](CO)C(=O)N[C@@H](CC(=O)O)C(=O)N[C@H]1CSSC[C@@H](C(=O)N2CCC[C@@]2(C)C(=O)N[C@@H](Cc2ccccc2)C(=O)N[C@@H](CC(=O)O)C(=O)N[C@H](CCCCNC(=O)CN2CCN(CC(=O)O)CCN(CC(=O)O)CCN(CC(=O)O)CC2)C(N)=O)NC(=O)[C@H](CC(N)=O)NC(=O)[C@H](Cc2ccc3ccccc3c2)NC(=O)[C@H](CCC(N)=O)NC(=O)[C@H](C(C)(C)C)NC(=O)[C@H](Cc2cccc3ccccc23)NC1=O)C1CCCCC1 [compound 129, Ac-(Chg)-S-D-C(3)-(1Nal)-(TBG)-Q-(2Nal)-N-C(3)-(aMe-P)-F-D-D-Lys(DOTA)-CONH2] (Ac-[Chg]SDC[1Nal][Tle]Q[2Nal]NC[αMeP]FD[dK](DOTA)-NH2; disulfide 4-10)
 | slow kon | CC(=O)N[C@H](C(=O)N[C@@H](CO)C(=O)N[C@@H](CC(=O)O)C(=O)N[C@H]1CSSC[C@@H](C(=O)N2CCC[C@@]2(C)C(=O)N[C@@H](Cc2ccccc2)C(=O)N[C@@H](CC(=O)O)C(=O)N[C@H](CCCCNC(=O)CN2CCN(CC(=O)O)CCN(CC(=O)O)CCN(CC(=O)O)CC2)C(N)=O)NC(=O)[C@H](CC(N)=O)NC(=O)[C@H](Cc2ccc3ccccc3c2)NC(=O)[C@H](CCC(N)=O)NC(=O)[C@@H]2CCCCN2C(=O)[C@H](Cc2cccc3ccccc23)NC1=O)C1CCCCC1 [compound 130, Ac-(Chg)-S-D-C(3)-(1Nal)-(PIP)-Q-(2Nal)-N-C(3)-(aMe-P)-F-D-D-Lys(DOTA)-CONH2] (Ac-[Chg]SDC[1Nal][Pip]Q[2Nal]NC[αMeP]FD[dK](DOTA)-NH2; disulfide 4-10)
